# Key:
# Type in all cases: in vivo
# [1] = tested on: IL-4; assay: IL-4 levels in sera upon i.v. glycolipid administration to C57BL/6 mice (ELISA); design: unit not given here
# Procedure: (§1) Five- to six-week-old female C57BL/6 mice and BALB/c mice were purchased from Taconic. Each glycolipid was stored at 1 mg/ml in 100% DMSO. Mice were injected intravenously with 1 μg of each glyocolipid diluted in 200 μL sterile phosphate buffered saline (PBS). At indicated time points, sera were collected from each animal, and concentrations of IFN-γ, IL-4, and IL-12 in the sera were evaluated by enzyme-linked immunosorbent assay (ELISA). Serum concentrations of IFN-γ, IL-4, and IL-12 were evaluated using an ELISA kit (eBioscience, San Diego, Calif.). Briefly, 96 well flat-bottom ELISA plates (NUNC) were coated with capture antibody according to the manufacture's recommendation and incubated overnight at 4° C. The plates were washed with PBS+0.05% Tween 20 (PBS-T), then incubated with manufacturer provided blocking solution for 1 hr at room temperature to block non-specific binding sites. After washing with PBS-T, sera diluted 1:10 was added to the wells and incubated for 2 hrs at room temperature. Plates were then incubated at room temperature for 1 hr with biotintylated detection antibody, washed, incubated with avidin conjugated to horse radish peroxidase (HRP) for 30 min at room temperature, washed, and finally incubated with tetramethylbenzidine substrate solution in the dark for 10 minutes at room temperature. The antibodies, avidin-HRP, and substrate solution were all diluted according to the manufacture's recommendation. Reactions were stopped with 2.0N sulfuric acid and the cytokine concentration in each well was determined by comparing the absorbance at 450 nm in each well to known standards. The levels of Th1- and Th2-type cytokines were determined in two different genetic backgrounds, i.e., in C57BL/6 mice and BALB/c mice. The following compounds were administered: A=compound (A-1 trans-conformer), B=compound (A-2), C=compound (A-3), D=compound (A-4), E=compound (A-5), Z=control (PBS alone), CRONY=α-C-GalCer, KRN=α-GalCer, GCK109 (A-1 trans-conformer), GCK151 (A-1 cis-conformer), GCK152 (A-7). The levels of cytokines were measured at 0, 2, 6, 12, 24, 48, and 72 hours after the compound administration. The levels of Th1-type cytokines IFN-γ and IL-12 are summarized in FIGS. 2A-C and 3A-C, respectively. Table 7 provides IFN-γ/IL-4 and IL-12/IL-4 ratios for various compounds, which can be used as indicators of their ability to selectively stimulate Th1-type immune responses.
# [2] = tested on: IFN-γ; assay: IFN-γ levels in sera upon i.v. glycolipid administration to BALB/c mice (ELISA); design: IFN-γ levels, test 1 / IFN-γ levels, test 2 / IFN-γ levels, average / IFN-γ levels, Total: unit not given here
# Procedure: as §1
# [3] = tested on: IFN-γ; assay: IFN-γ levels in sera upon i.v. glycolipid administration to C57BL/6 mice (ELISA); design: IFN-γ levels, test 1 / IFN-γ levels, test 2 / IFN-γ levels, average / IFN-γ levels, Total / IFN-γ (B6): unit not given here
# Procedure: as §1
# [4] = tested on: IL-12; assay: IL-12 levels in sera upon i.v. glycolipid administration to C57BL/6 mice (ELISA); design: IL-12 levels, test 1 / IL-12 levels, test 2 / IL-12 levels, average / IL-12 levels, Total: unit not given here
# Procedure: as §1
# [5] = C57BL/6, ratio calculated from Tables 1-6
# [6] = C57BL/6, serum, total over hours 0-72
smiles,measurement,setting,value
"CCCCCCCCCCCCCCCCCCCCCCCCCCCCC(=O)N[C@@H](/C=C/[C@H]1O[C@H](CO)[C@H](O)[C@H](O)[C@H]1O)[C@H](O)[C@H](O)CCCCCCCCCCCCCC [A-2, (3S,4S,5R)-1-C-(α-D-galactopyranosyl)-3-(N-nonacosanoylamino)-4,5-nonadec-(1,2-E)-enediol]","IL-4 level, average",[1]; hour 0,46
same,"IL-4 level, test 1",[1]; hour 0,46
same,"IL-4 level, test 2",[1]; hour 0,46
same,"IL-4 level, average",[1]; hour 2,443
same,"IL-4 level, test 1",[1]; hour 2,286
same,"IL-4 level, test 2",[1]; hour 2,600
same,"IL-4 level, average",[1]; hour 6,110
same,"IL-4 level, test 1",[1]; hour 6,95
same,"IL-4 level, test 2",[1]; hour 6,125
same,"IL-4 level, average",[1]; hour 12,56.5
same,"IL-4 level, test 1",[1]; hour 12,45
same,"IL-4 level, test 2",[1]; hour 12,68
same,"IL-4 level, average",[1]; hour 24,52
same,"IL-4 level, test 1",[1]; hour 24,46
same,"IL-4 level, test 2",[1]; hour 24,58
same,"IL-4 level, average",[1]; hour 48,56
same,"IL-4 level, test 1",[1]; hour 48,60
same,"IL-4 level, test 2",[1]; hour 48,52
same,"IL-4 level, average",[1]; hour 72,61.5
same,"IL-4 level, test 1",[1]; hour 72,59
same,"IL-4 level, test 2",[1]; hour 72,64
same,"IL-4 level, Total",[1]; total over hours 0-72,826
same,IFN-γ/IL-4 (BALB/c),"[2]; BALB/c, ratio calculated from Tables 1-6",43
same,"IFN-γ levels, average","[2]; BALB/c, serum, hour 0",27
same,"IFN-γ levels, test 1","[2]; BALB/c, serum, hour 0",27
same,"IFN-γ levels, test 2","[2]; BALB/c, serum, hour 0",27
same,"IFN-γ levels, average","[2]; BALB/c, serum, hour 2",234
same,"IFN-γ levels, test 1","[2]; BALB/c, serum, hour 2",197
same,"IFN-γ levels, test 2","[2]; BALB/c, serum, hour 2",271
same,"IFN-γ levels, average","[2]; BALB/c, serum, hour 6",4185.5
same,"IFN-γ levels, test 1","[2]; BALB/c, serum, hour 6",3723
same,"IFN-γ levels, test 2","[2]; BALB/c, serum, hour 6",4648
same,"IFN-γ levels, average","[2]; BALB/c, serum, hour 12",6418.5
same,"IFN-γ levels, test 1","[2]; BALB/c, serum, hour 12",7529
same,"IFN-γ levels, test 2","[2]; BALB/c, serum, hour 12",5308
same,"IFN-γ levels, average","[2]; BALB/c, serum, hour 24",15500
same,"IFN-γ levels, test 1","[2]; BALB/c, serum, hour 24",16500
same,"IFN-γ levels, test 2","[2]; BALB/c, serum, hour 24",14500
same,"IFN-γ levels, average","[2]; BALB/c, serum, hour 48",325.5
same,"IFN-γ levels, test 1","[2]; BALB/c, serum, hour 48",319
same,"IFN-γ levels, test 2","[2]; BALB/c, serum, hour 48",332
same,"IFN-γ levels, average","[2]; BALB/c, serum, hour 72",62.5
same,"IFN-γ levels, test 1","[2]; BALB/c, serum, hour 72",59
same,"IFN-γ levels, test 2","[2]; BALB/c, serum, hour 72",66
same,"IFN-γ levels, Total","[2]; BALB/c, serum, total over hours 0-72",26755
same,effect: higher/extended IFN-γ and IL-12 with much lower IL-4 compared to α-GalCer (KRN),"[2]; C57BL/6 and BALB/c mice, 1 μg i.v.",particularly pronounced
same,IFN-γ/IL-4 (B6),[3]; [5],16
same,"IFN-γ levels, average","[3]; C57BL/6, serum, hour 0",31
same,"IFN-γ levels, test 1","[3]; C57BL/6, serum, hour 0",31
same,"IFN-γ levels, test 2","[3]; C57BL/6, serum, hour 0",31
same,"IFN-γ levels, average","[3]; C57BL/6, serum, hour 2",138.5
same,"IFN-γ levels, test 1","[3]; C57BL/6, serum, hour 2",138
same,"IFN-γ levels, test 2","[3]; C57BL/6, serum, hour 2",139
same,"IFN-γ levels, average","[3]; C57BL/6, serum, hour 6",944.5
same,"IFN-γ levels, test 1","[3]; C57BL/6, serum, hour 6",955
same,"IFN-γ levels, test 2","[3]; C57BL/6, serum, hour 6",934
same,"IFN-γ levels, average","[3]; C57BL/6, serum, hour 12",2932
same,"IFN-γ levels, test 1","[3]; C57BL/6, serum, hour 12",2427
same,"IFN-γ levels, test 2","[3]; C57BL/6, serum, hour 12",3437
same,"IFN-γ levels, average","[3]; C57BL/6, serum, hour 24",8415
same,"IFN-γ levels, test 1","[3]; C57BL/6, serum, hour 24",7023
same,"IFN-γ levels, test 2","[3]; C57BL/6, serum, hour 24",9807
same,"IFN-γ levels, average","[3]; C57BL/6, serum, hour 48",464
same,"IFN-γ levels, test 1","[3]; C57BL/6, serum, hour 48",424
same,"IFN-γ levels, test 2","[3]; C57BL/6, serum, hour 48",504
same,"IFN-γ levels, average","[3]; C57BL/6, serum, hour 72",100.5
same,"IFN-γ levels, test 1","[3]; C57BL/6, serum, hour 72",87
same,"IFN-γ levels, test 2","[3]; C57BL/6, serum, hour 72",114
same,"IFN-γ levels, Total",[3]; [6],13027
same,IL-12/IL-4 (B6),[4]; [5],4.8
same,"IL-12 levels, average","[4]; C57BL/6, serum, hour 0",5
same,"IL-12 levels, test 1","[4]; C57BL/6, serum, hour 0",5
same,"IL-12 levels, test 2","[4]; C57BL/6, serum, hour 0",5
same,"IL-12 levels, average","[4]; C57BL/6, serum, hour 2",161.5
same,"IL-12 levels, test 1","[4]; C57BL/6, serum, hour 2",178
same,"IL-12 levels, test 2","[4]; C57BL/6, serum, hour 2",145
same,"IL-12 levels, average","[4]; C57BL/6, serum, hour 6",1363.5
same,"IL-12 levels, test 1","[4]; C57BL/6, serum, hour 6",1488
same,"IL-12 levels, test 2","[4]; C57BL/6, serum, hour 6",1239
same,"IL-12 levels, average","[4]; C57BL/6, serum, hour 12",1818.5
same,"IL-12 levels, test 1","[4]; C57BL/6, serum, hour 12",1692
same,"IL-12 levels, test 2","[4]; C57BL/6, serum, hour 12",1945
same,"IL-12 levels, average","[4]; C57BL/6, serum, hour 24",323
same,"IL-12 levels, test 1","[4]; C57BL/6, serum, hour 24",44
same,"IL-12 levels, test 2","[4]; C57BL/6, serum, hour 24",602
same,"IL-12 levels, average","[4]; C57BL/6, serum, hour 48",250
same,"IL-12 levels, test 1","[4]; C57BL/6, serum, hour 48",500
same,"IL-12 levels, test 2","[4]; C57BL/6, serum, hour 48",0
same,"IL-12 levels, average","[4]; C57BL/6, serum, hour 72",45.5
same,"IL-12 levels, test 1","[4]; C57BL/6, serum, hour 72",91
same,"IL-12 levels, test 2","[4]; C57BL/6, serum, hour 72",0
same,"IL-12 levels, Total",[4]; [6],3969

# — patent publication US8883745B2, “C—glycolipids with enhanced Th-1 profile” (New York University, priority 2006, dated 2014)
